Earlier results on 1 molecule are cited in article PMC11949389 (Polish Journal of Microbiology, 2025).

Usually MIC90 stands for the lowest concentration that inhibits either 90% of growth or 90% of the strains tested, depending on the study. As usually defined, the MIC is the smallest concentration in the dilution series that meets the test's criterion for growth inhibition.

For one series, the system named is Pseudomonas sp. The note with it: ref Caballero Gómez et al. 2022.
Series [1] concerns Staphylococcus pseudintermedius.
The test system of series [2] is Methicillin-resistant Staphylococcus aureus. The settings on record: Methicillin-resistant Staphylococcus aureus; ref Owen et al. 2019.
In the next series the test system is various microorganisms. The settings on record: across various microorganisms; ref Owen et al. (2019).
Series [3] concerns Ciprofloxacin-resistant Pseudomonas aeruginosa. The settings on record: Ciprofloxacin-resistant Pseudomonas aeruginosa; ref Owen et al. 2019.
For series [4], the system named is Methicillin-susceptible Staphylococcus aureus. The note with it: ref Owen et al. 2019.
The next series deals with TetK efflux pump. The note with it: S. aureus, ref Sousa Silveira et al. (2020).
The next series relates to Candida species. The note with it: ref Stringaro et al. (2022).
Series [5] deals with Mupirocin-susceptible Staphylococcus aureus. The note with it: ref Kwiatkowski et al. 2019.
In another series the test system is Escherichia coli. The note with it: Escherichia coli; ref Owen et al. 2019; Sayout et al. 2020; Noumi et al. 2023.

Values after ≈ are worked out from the molar mass of the structure shown.

As to `Cc1ccc(C(C)C)cc1O` [Carvacrol], the MIC/Sensitivity in the series on Pseudomonas sp. is 0.1 to 0.4 mg/mL; in series [1] (Staphylococcus pseudintermedius, ref Sim et al. 2019) it was 0.146 to 0.292 mg/mL; in series [2] it was 148.7178 mg/mL (≈ 990 mM); with Candida glabrata (Candida glabrata, ref Sharifzadeh et al. 2019, Iraji et al. 2020, Biernasiuk et al. 2022, Stringaro et al. 2022), 0.0625 to 0.195 mg/mL; in the series with Campylobacter jejuni (Campylobacter jejuni, ref Šimunović et al. 2020), 0.03125 mg/mL (≈ 0.208 mM); in series [3], 4749.9564 mg/mL (≈ 31600 mM). For the same molecule, the MIC/Sensitivity in [4] is 297.4356 mg/mL (≈ 1980 mM); in series [5] it was 0.95 mg/mL (≈ 6.32 mM); in the series with Escherichia coli, 297.4356 mg/mL (≈ 1980 mM). In series [1] (S. pseudintermedius, ref Sim et al. (2019)), the MIC90 is 0.146 mg/mL (≈ 0.972 mM). Also, the MIC with various microorganisms is 990 to 15810 µM; with Campylobacter jejuni (ref Šimunović et al. (2020)) it was 0.03125 mg/mL (≈ 0.208 mM); with Candida species, 0.0975 to 0.195 mg/mL. Further, the FICI with Candida glabrata (with voriconazole, C. glabrata, ref Sharifzadeh et al. (2019)) is 0.412–0.625. In addition, the efflux pump inhibition result in the series with TetK efflux pump is on record as “did not act as efflux pump inhibitors”.
